One series addresses BChE. The conditions noted are these: cited from earlier work.
In a further series the test system is rat brain AChE. The conditions noted are these: pH 7.4; cited from earlier work.
The conditions of series [1]: pH 8.
For series [2], the target named is T1, human BChE (Homo sapiens, UniProt P06276).
A further series concerns paraoxonase 1. The note with it: cited from earlier work.
The target of another series is CBDP-phosphonylated BChE (Homo sapiens, UniProt P06276). In kind it is biochemical. The conditions noted are these: pH 8.
Chain of CBDP-phosphonylated BChE (P06276 29-602): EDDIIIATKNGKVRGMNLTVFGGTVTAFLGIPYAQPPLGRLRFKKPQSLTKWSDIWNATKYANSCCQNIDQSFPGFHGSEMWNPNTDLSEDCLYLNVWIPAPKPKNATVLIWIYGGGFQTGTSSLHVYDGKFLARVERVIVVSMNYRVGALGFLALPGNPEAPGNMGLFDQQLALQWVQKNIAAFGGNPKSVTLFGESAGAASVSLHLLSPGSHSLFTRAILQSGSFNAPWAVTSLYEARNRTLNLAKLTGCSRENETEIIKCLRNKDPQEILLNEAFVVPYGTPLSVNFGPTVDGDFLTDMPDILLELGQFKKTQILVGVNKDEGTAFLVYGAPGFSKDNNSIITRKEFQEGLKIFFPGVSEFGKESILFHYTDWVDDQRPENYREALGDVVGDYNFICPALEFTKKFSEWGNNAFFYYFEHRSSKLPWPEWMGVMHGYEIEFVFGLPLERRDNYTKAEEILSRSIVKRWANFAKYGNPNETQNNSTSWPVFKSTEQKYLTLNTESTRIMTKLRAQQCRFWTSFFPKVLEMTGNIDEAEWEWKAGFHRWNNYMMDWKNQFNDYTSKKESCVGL
The target of a further series is human AChE (Homo sapiens, UniProt P22303). In kind it is biochemical.
Chain of human AChE (P22303 32-614): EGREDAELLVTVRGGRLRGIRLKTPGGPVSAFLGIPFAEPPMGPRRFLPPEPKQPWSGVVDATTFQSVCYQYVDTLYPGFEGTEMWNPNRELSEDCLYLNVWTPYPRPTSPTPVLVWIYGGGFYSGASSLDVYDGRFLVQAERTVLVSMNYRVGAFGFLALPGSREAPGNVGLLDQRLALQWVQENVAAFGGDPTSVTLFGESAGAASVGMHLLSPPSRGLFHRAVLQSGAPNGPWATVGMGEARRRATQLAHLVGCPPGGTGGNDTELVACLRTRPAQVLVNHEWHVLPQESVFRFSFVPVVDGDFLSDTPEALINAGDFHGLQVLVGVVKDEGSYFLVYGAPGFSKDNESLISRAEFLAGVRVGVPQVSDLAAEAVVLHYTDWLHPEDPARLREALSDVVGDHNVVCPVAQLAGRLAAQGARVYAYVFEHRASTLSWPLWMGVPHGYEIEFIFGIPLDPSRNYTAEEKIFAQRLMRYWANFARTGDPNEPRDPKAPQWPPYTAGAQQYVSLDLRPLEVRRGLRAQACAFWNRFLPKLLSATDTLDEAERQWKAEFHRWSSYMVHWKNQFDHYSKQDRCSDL
The target in series [3] is T1, human BChE. The conditions noted are these: pH 8; cited from earlier work.
In another series the test system is recombinant human AChE. The note with it: pH 8; cited from earlier work.
In the next series the target is CBDP-phosphonylated AChE (Homo sapiens, UniProt P22303). In kind it is biochemical. The note with it: pH 8.
Chain of CBDP-phosphonylated AChE (P22303 32-614): as above

T1 sequence (P06276 29-602): as the sequence (P06276 29-602) above

With `CCOP(=O)(OCC)Oc1cc(C)nc(C(C)C)n1` [diazoxon], at BChE, the “ki, reactivity with BChE” value was 1.28e+06 M⁻¹ s⁻¹.
Turning to `Cc1ccccc1OP1(=O)OCc2ccccc2O1` (centres unmarked) [CBDP, 2-(o-cresyl)-4H-1,3,2-benzodioxaphosphoran-2-one], the “bimolecular rate constant of inhibition” value in the series on rat brain AChE was 18.3 M⁻¹ s⁻¹; on human BChE [3], 330 M⁻¹ s⁻¹; in the series on recombinant human AChE, 35 M⁻¹ s⁻¹. Further, the hydrolysis rate in [1] stood at 0.0126 min⁻¹. On human BChE [2], the “K'I, dissociation constant of the Michaelis complex, BChE form E′” value is recorded as over 10 nM. The “ki values for BChE (both forms)” value on human BChE [2] is 10^7–10^8 M^−1 min^−1. The “slow phase reactivity of hBChE (form E′) relative to hAChE (form E′)” value on human BChE [2] amounted to 235±110 fold. Besides, at human BChE [2] (human), the “kp, phosphorylation rate constant, BChE form E (kp=ki.KI)” value was over 1.5 min⁻¹. In addition, the Ki was over 10 nM at human BChE [2] (read-out: KI, dissociation constant of the Michaelis complex, BChE form E) and under 100 nM on human AChE (read-out: KI, dissociation constant of the Michaelis complex, AChE form E). In addition, the “reaction with paraoxonase 1” value with paraoxonase 1 is “does not react”. Besides, the “time to loss of reactivatibility (aging) following inhibition” value at CBDP-phosphonylated BChE and at CBDP-phosphonylated AChE was “less than 15 s” each time. Besides, at human AChE, the “K'I, dissociation constant of the Michaelis complex, AChE form E′” value was over 5.5 µM. Moreover, the “kobs, fast phase of inhibition (independent of CBDP concentration)” value on human AChE worked out at 0.37 ± 0.15 min⁻¹.
On to chlorpyrifos-oxon, for which the “ki, reactivity with BChE” value on BChE is 2.83e+07 M⁻¹ s⁻¹.

The values are drawn from paper PMC3118852 (Chemical research in toxicology, 2011).
